According to patent US11214803B2, “Modulators of YAP1 expression” (Ionis Pharmaceuticals, Inc., priority 2019, dated 2022):
Strand notation (5' to 3'): a small letter for the sugar, then the base; units joined by * are phosphorothioate-linked, units joined directly phosphodiester-linked; [ ] holds rarer units or linkages, { } end groups; capitals alone tell only the bases. k = constrained ethyl (cEt); [5mC] = 5-methylcytosine; d = 2'-deoxy (DNA)

Tested on: Yap1 mRNA
Experiment: Dose-dependent inhibition of human Yap1 in A-431 cells (Example 7, 10,000 cells per well, RTS36584)
Format: cell-based
Conditions: free uptake
Procedure: Modified oligonucleotides described in the studies above were tested at various doses in A-431 cells. Cultured A-431 cells at a density of 10,000 cells per well were treated using free uptake with modified oligonucleotides diluted to concentrations described in the tables below. After approximately 48 hours, Yap1 mRNA levels were measured as previously described using the Human Yap1 primer-probe set RTS36584. Yap1 mRNA levels were normalized to total RNA content, as measured by RIBOGREEN®. Results are presented in the tables below as percent control of the amount of Yap1 mRNA relative to untreated control cells (% UTC). IC50s were calculated using a linear regression on a log/linear plot of the data in excel.

[1] = Table 58, 15.6 nM, A-431 cells 10,000 cells per well, 48 hours
[2] = Table 58, 62.5 nM, A-431 cells 10,000 cells per well, 48 hours
[3] = Table 58, 4000.00 nM, A-431 cells 10,000 cells per well, 48 hours
[4] = Table 58, A-431 cells 10,000 cells per well
[5] = Table 56, 15.6 nM, A-431 cells 10,000 cells per well, 48 hours
[6] = Table 56, 62.5 nM, A-431 cells 10,000 cells per well, 48 hours
[7] = Table 56, 4000.00 nM, A-431 cells 10,000 cells per well, 48 hours
[8] = Table 56, A-431 cells 10,000 cells per well
[9] = Table 59, 15.6 nM, A-431 cells 10,000 cells per well, 48 hours
[10] = Table 59, 62.5 nM, A-431 cells 10,000 cells per well, 48 hours
[11] = Table 59, 4000.00 nM, A-431 cells 10,000 cells per well, 48 hours
[12] = Table 59, A-431 cells 10,000 cells per well
[13] = Table 57, 15.6 nM, A-431 cells 10,000 cells per well, 48 hours
[14] = Table 57, 62.5 nM, A-431 cells 10,000 cells per well, 48 hours
[15] = Table 57, 4000.00 nM, A-431 cells 10,000 cells per well, 48 hours
[16] = Table 57, A-431 cells 10,000 cells per well

958587 (kG*kG*kT*dG*dA*d[5mC]*dT*dG*dA*dA*dA*d[5mC]*dT*k[5mC]*kT*kA; antisense) [compound 958587]
Yap1 mRNA, % UTC [1]: 94 % UTC
Yap1 mRNA, % UTC [2]: 49 % UTC
Yap1 mRNA, % UTC [3]: 7 % UTC
IC50 [4]: 100 nM

958377 (antisense kG*k[5mC]*kT*dG*dG*dG*dA*dT*dT*dG*dA*dT*dA*kT*kT*k[5mC]) [compound 958377]
Yap1 mRNA, % UTC [5]: 90 % UTC
Yap1 mRNA, % UTC [6]: 60 % UTC
Yap1 mRNA, % UTC [7]: 17 % UTC
IC50 [8]: 130 nM

958577 (kT*k[5mC]*kT*dG*dT*dG*dG*d[5mC]*dT*dA*d[5mC]*dT*dG*kG*k[5mC]*kA; antisense) [compound 958577]
Yap1 mRNA, % UTC [1]: 81 % UTC
Yap1 mRNA, % UTC [2]: 51 % UTC
Yap1 mRNA, % UTC [3]: 11 % UTC
IC50 [4]: 100 nM

958542 (kT*kA*kT*dA*dG*dT*dA*dT*dT*d[5mC]*dT*dA*dT*k[5mC]*k[5mC]*kA; antisense) [compound 958542]
Yap1 mRNA, % UTC [1]: 90 % UTC
Yap1 mRNA, % UTC [2]: 70 % UTC
Yap1 mRNA, % UTC [3]: 17 % UTC
IC50 [4]: 100 nM

958573 (kG*kG*k[5mC]*dA*dA*dA*dT*dT*dA*dT*dA*dG*dG*k[5mC]*kA*k[5mC]; antisense) [compound 958573]
Yap1 mRNA, % UTC [9]: 81 % UTC
Yap1 mRNA, % UTC [10]: 56 % UTC
Yap1 mRNA, % UTC [11]: 8 % UTC
IC50 [12]: 100 nM

958724 (kT*k[5mC]*kA*dG*dT*dT*dA*dT*d[5mC]*d[5mC]*dT*dA*dT*k[5mC]*k[5mC]*k[5mC]; antisense) [compound 958724]
Yap1 mRNA, % UTC (Table 61, 15.6 nM, A-431 cells 10,000 cells per well, 48 hours): 89 % UTC
Yap1 mRNA, % UTC (Table 61, 62.5 nM, A-431 cells 10,000 cells per well, 48 hours): 55 % UTC
Yap1 mRNA, % UTC (Table 61, 4000.00 nM, A-431 cells 10,000 cells per well, 48 hours): 6 % UTC
IC50 (Table 61, A-431 cells 10,000 cells per well): 100 nM

958505 (kG*kA*kT*dA*dA*dT*d[5mC]*dG*dA*dG*dA*dT*dT*kT*kA*kA; antisense) [compound 958505]
Yap1 mRNA, % UTC (15.6 nM, A-431 cells, 10,000 cells per well, approximately 48 hours): 81 % UTC
Yap1 mRNA, % UTC (62.5 nM, A-431 cells, 10,000 cells per well, approximately 48 hours): 72 % UTC
Yap1 mRNA, % UTC (4000.00 nM, A-431 cells, 10,000 cells per well, approximately 48 hours): 21 % UTC
IC50 (A-431 cells, approximately 48 hours, linear regression on log/linear plot): 200 nM

958758 (k[5mC]*kT*kA*dT*dT*d[5mC]*dA*dG*dT*dG*dA*dT*d[5mC]*kT*kG*k[5mC]; antisense) [compound 958758]
Yap1 mRNA, % UTC [9]: 83 % UTC
Yap1 mRNA, % UTC [10]: 66 % UTC
Yap1 mRNA, % UTC [11]: 12 % UTC
IC50 [12]: 100 nM

958761 (kA*kG*kT*d[5mC]*dT*d[5mC]*dA*dA*d[5mC]*dA*dA*d[5mC]*d[5mC]*kT*kT*k[5mC]; antisense) [compound 958761]
Yap1 mRNA, % UTC [13]: 84 % UTC
Yap1 mRNA, % UTC [14]: 73 % UTC
Yap1 mRNA, % UTC [15]: 24 % UTC
IC50 [16]: 200 nM

958369 (antisense kT*kT*kA*dT*d[5mC]*dT*dA*dG*d[5mC]*dT*dT*dG*dG*kT*kG*kG) [compound 958369]
Yap1 mRNA, % UTC [5]: 107 % UTC
Yap1 mRNA, % UTC [6]: 68 % UTC
Yap1 mRNA, % UTC [7]: 17 % UTC
IC50 [8]: 170 nM

958536 (kA*kG*kG*dG*dT*d[5mC]*dA*dA*dT*dT*dT*dT*d[5mC]*kA*kG*k[5mC]; antisense) [compound 958536]
Yap1 mRNA, % UTC [5]: 94 % UTC
Yap1 mRNA, % UTC [6]: 67 % UTC
Yap1 mRNA, % UTC [7]: 16 % UTC
IC50 [8]: 140 nM

958491 (kA*k[5mC]*kT*dA*dA*dA*dT*dG*d[5mC]*dT*dG*dT*dG*kA*k[5mC]*kA; antisense) [compound 958491]
Yap1 mRNA, % UTC [13]: 94 % UTC
Yap1 mRNA, % UTC [14]: 65 % UTC
Yap1 mRNA, % UTC [15]: 10 % UTC
IC50 [16]: 100 nM

958556 (k[5mC]*kA*kA*d[5mC]*d[5mC]*dA*dA*d[5mC]*dT*dA*dT*dT*dA*k[5mC]*kT*kT; antisense) [compound 958556]
Yap1 mRNA, % UTC [13]: 103 % UTC
Yap1 mRNA, % UTC [14]: 95 % UTC
Yap1 mRNA, % UTC [15]: 34 % UTC
IC50 [16]: 500 nM

958538 (kA*kT*k[5mC]*d[5mC]*dA*dG*dG*dG*dT*d[5mC]*dA*dA*dT*kT*kT*kT; antisense) [compound 958538]
Yap1 mRNA, % UTC (Table 60, 15.6 nM, A-431 cells 10,000 cells per well, 48 hours): 101 % UTC
Yap1 mRNA, % UTC (Table 60, 62.5 nM, A-431 cells 10,000 cells per well, 48 hours): 77 % UTC
Yap1 mRNA, % UTC (Table 60, 4000.00 nM, A-431 cells 10,000 cells per well, 48 hours): 30 % UTC
IC50 (Table 60, A-431 cells 10,000 cells per well): 300 nM
